From patent US20140127158A1, “COMBINATION THERAPY FOR HEPATITIS C VIRUS INFECTION” (National Health Research Institute, priority 2012, published 2014)
Like-named read-outs stand apart in the source and are kept apart here.

Columns and labels:
[1] = tested on: HCV genotype 1b replicon (Con1); assay: Inhibitory assay for HCV replicons (luciferase), genotype 1b Con1; type: cell-based, Hepatitis C virus; details: HCV-1b replicon cell lines, single agent
Protocol: (2) Cell culture and HCV inhibitors. Huh-7.5 cells and their derivative HCV replicon cell lines were maintained in Dulbecco's modified Eagle's medium (DMEM, Gibco/BRL) that was supplemented with 100 U/mL penicillin-streptomycin (Gibco/BRL), 0.1 mM nonessential amino acid (NEAA, Gibco/BRL) and 10% fetal bovine serum (FBS) heat inactivated at 37° C. in 5% CO2. The HCV replicon cell lines were isolated from colonies as described in Lohman et al., Science 285:110-3 (1999). The culture medium for the replicon cells was additionally supplemented with 0.25 to 0.5 mg/mL of G418, unless specified otherwise. Compound DBPR110 and sofosbuvir were synthesized at the Institute of Biotechnology and Pharmaceutical Research at the National Health Research Institutes in Taiwan. Telaprevir (Lin et al., Antimicrob Agents Chemother, 50:1813-22 (2006)) was purchased from Acme Biosciences (Belmont, Calif.). The compounds were stored at −20° C. as 10 to 500 mM dimethyl sulfoxide (DMSO) stock solutions until the assay. IFN-α was purchased from Calbiochem (La Jolla, Calif.) and stored at −80° C.
(3) Inhibitory assay for HCV replicons. Cells were seeded at 1×10^4 (high-throughput screening assay) or 1×10^5 (regular assay) cells/well in 96- or 12-well plate, respectively, and incubated for 4 h. The medium was then aspirated and replaced with 0.1 (96-well plate) or 1 (12-well plate) mL of complete medium containing a single compound or combinations of compounds in serial concentration(s). The plates with compounds were incubated for 72 h and then assayed for luciferase expression (Promega). The EC50 of each compound was determined independently and used to determine the range of concentrations used for the combination experiments. All data are presented as the means±standard deviations (SD) from three independent experiments. The selectivity index (SI) was calculated as the ratio of the CC50 to the EC50.

Cytotoxicity assay (MTT) = type: cell-based; details: human
Protocol: (§1) (4) Cytotoxicity assay. The sensitivity of the cell lines to inhibitors was examined using a 3-(4,5-Dimethylthiazol-2-yl)-2,5-diphenyltetrazolium bromide (MTT) assay. Briefly, Huh-7.5 cells were plated at a density of 1×10^5 cells per well in 12-well plates containing 1 mL of culture medium for 4 h. Serial dilutions of the compounds or DMSO (negative control) were added, and the plates were incubated for an additional 72 h. The MTT reagent was then added to each well, and the plates were incubated for 3 h at 37° C. in a humidified 5% CO2 atmosphere before reading at a wavelength of 563 nm using an ELISA plate reader. All data are presented as the means +/−SD from four independent experiments.

HCV genotype 1b replicon = assay: Inhibitor combination study (combination index, CalcuSyn); details: at the concentrations used in the combination experiments
[2] = tested on: HCV genotype 1b replicon (Con1); details: HCV1b replicon; Gao et al., Nature 2010; cited from earlier work
[3] = tested on: HCV genotype 2a replicon (JFH1); details: Gao et al., Nature 2010; cited from earlier work
Huh-7.5 cells = assay: Cytotoxicity assay (MTT); type: cell-based; details: HCV-1b replicon cell lines; single agent
Protocol: as §1

[4] = Hepatitis C virus, read-out: EC50
[5] = Hepatitis C virus, read-out: EC90
[6] = HCV-1b replicon cell lines, single agent, read-out: CC50

CCC[C@H](NC(=O)[C@@H]1[C@H]2CCC[C@H]2CN1C(=O)[C@@H](NC(=O)[C@@H](NC(=O)c1cnccn1)C1CCCCC1)C(C)(C)C)C(=O)C(=O)NC1CC1 [Telaprevir, telaprevir, reference compound]
EC50 [1, 4]: 301.6 ± 2.8 nM
EC90 [1, 5]: 912 ± 75.4 nM
CC50 at 72 h (Cytotoxicity assay (MTT); [6]): > 5000 nM
cytotoxicity (HCV genotype 1b replicon): No cytotoxicity was observed

CC(C)(C)NC(=O)N[C@H](C(=O)N1C[C@H]2[C@@H]([C@H]1C(=O)NC(CC1CCC1)C(=O)C(N)=O)C2(C)C)C(C)(C)C (stereo partly drawn) [Boceprevir, boceprevir, reference compound]
EC50 [1, 4]: 361 ± 19.9 nM
EC90 [1, 5]: 962 ± 21.5 nM
CC50 at 72 h (Cytotoxicity assay (MTT); [6]): > 5000 nM
cytotoxicity (HCV genotype 1b replicon): No cytotoxicity was observed

COC(=O)N[C@H](C(=O)N1CCC[C@H]1c1nc(-c2ccc(-c3ccc(-c4c[nH]c([C@@H]5CCCN5C(=O)[C@@H](NC(=O)OC)C(C)C)n4)cc3)cc2)c[nH]1)C(C)C [BMS-790052]
EC50 [2]: 0.009 nM
EC50 [3]: 0.071 nM

CC(C)OC(=O)[C@H](C)N[P@](=O)(OC[C@H]1O[C@@H](n2ccc(=O)[nH]c2=O)[C@](C)(F)[C@@H]1O)Oc1ccccc1 [Sofosbuvir, sofosbuvir, reference compound]
EC50 [1, 4]: 91.5 ± 18.3 nM
EC90 [1, 5]: 323 ± 66.1 nM
CC50 at 72 h (Cytotoxicity assay (MTT); [6]): > 5000 nM
cytotoxicity (HCV genotype 1b replicon): No cytotoxicity was observed

NC(=O)c1ncn([C@@H]2O[C@H](CO)[C@@H](O)[C@H]2O)n1 [Ribavirin, ribavirin, reference compound]
EC50 [1, 4]: 20500 ± 3500 nM
EC90 [1, 5]: 95000 ± 20100 nM
CC50 at 72 h (Cytotoxicity assay (MTT)): > 200000 nM

IFN-α
EC50 [1]: 35.1±4.7 IU/mL
EC90 [1]: 327.0 ± 0.01 IU/mL
CC50 (Huh-7.5 cells): >2,000 IU/mL
cytotoxicity (HCV genotype 1b replicon): No cytotoxicity was observed
